Results published in ChEMBL document CHEMBL5728597, “Tetrahydroquinoline derivatives as P2X7 receptor antagonists” (2021).

Target: T1, P2X purinoceptor 7 (Homo sapiens, UniProt Q99572)
T1 sequence (Q99572 whole entry): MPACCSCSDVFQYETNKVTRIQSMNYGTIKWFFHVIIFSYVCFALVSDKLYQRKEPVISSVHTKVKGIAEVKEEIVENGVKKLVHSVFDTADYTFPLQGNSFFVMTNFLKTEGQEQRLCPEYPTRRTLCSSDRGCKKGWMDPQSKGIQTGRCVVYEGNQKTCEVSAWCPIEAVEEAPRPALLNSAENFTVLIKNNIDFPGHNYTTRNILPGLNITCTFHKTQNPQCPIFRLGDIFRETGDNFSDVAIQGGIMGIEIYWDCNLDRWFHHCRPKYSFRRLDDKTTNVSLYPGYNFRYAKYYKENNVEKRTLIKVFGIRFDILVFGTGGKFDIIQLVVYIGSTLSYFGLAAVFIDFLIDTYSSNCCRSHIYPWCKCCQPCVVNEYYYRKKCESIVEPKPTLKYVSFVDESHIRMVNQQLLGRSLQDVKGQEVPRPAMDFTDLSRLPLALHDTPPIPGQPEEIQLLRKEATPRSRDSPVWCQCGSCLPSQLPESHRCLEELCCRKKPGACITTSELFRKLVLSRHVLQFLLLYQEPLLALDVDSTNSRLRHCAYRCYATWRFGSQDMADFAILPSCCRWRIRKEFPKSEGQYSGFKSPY
Experiment: Pharmacological Assay: 1. […] Incubate the plate at 37° C. in 5% CO2 for 1 h.4. […] Test compounds were prepared at 100× the test concentration in DMSO by serial dilution with Biomek-FX liquid handling instrument. 33× diluted compound solutions in assay buffer were prepared in intermediate compound plate with Biomek-NX liquid handling instrument. A further 3× dilution occurred in below steps 6 and 7.6. Add 20 microL of 33× diluted compound solutions into each well and leave the plate for 10 min under the dark at room temperature.7. Measure activity by FDSS as follows:Set the assay plate on the stacker of FDSS.Start the detection of fluorescence intensity at 540 nm by 480 nm exicitation.After 30 seconds, add 20 microL of assay buffer containing 240 microM BzATP (final concentration 80 microM).

Row | IC50 | Structure (SMILES)
1 | < 50 nM | NC(=O)CC1CCC(C(=O)NCc2cccc(C(F)(F)F)c2Cl)c2cccnc21 (configuration not stated)
2 | < 50 nM | O=C(NCc1ccc(C(F)(F)F)cc1Cl)[C@]1(F)CC[C@H](O)c2ncccc21
